Data set [1] concerns the target T1, muscarinic receptors (smooth muscle from fundus of stomach) (Rattus norvegicus, UniProt P10980).
T1 construct: Smooth muscle of the fundic section of the stomach was separated from the gastric mucosa; from tissue; host or cells: fundic smooth muscle homogenate of the stomach of male Sprague-Dawley rats
T1 sequence (P10980 1-466): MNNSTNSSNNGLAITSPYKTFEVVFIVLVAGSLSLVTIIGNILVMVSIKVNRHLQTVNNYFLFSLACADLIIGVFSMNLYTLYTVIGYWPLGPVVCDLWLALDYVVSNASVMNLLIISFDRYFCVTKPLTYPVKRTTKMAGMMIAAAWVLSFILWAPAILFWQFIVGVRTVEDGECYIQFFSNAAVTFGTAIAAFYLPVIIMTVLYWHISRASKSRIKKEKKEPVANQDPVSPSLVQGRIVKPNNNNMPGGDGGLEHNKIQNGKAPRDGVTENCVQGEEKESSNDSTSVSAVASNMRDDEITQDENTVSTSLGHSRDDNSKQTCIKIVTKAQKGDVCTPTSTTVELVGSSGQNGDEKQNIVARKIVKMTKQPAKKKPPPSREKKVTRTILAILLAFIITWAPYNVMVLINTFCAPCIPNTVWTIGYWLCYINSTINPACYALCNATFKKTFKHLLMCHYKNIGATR
Briefly: Muscarinic receptor binding (inhibition of specific 3H-N-methylscopolamine binding), smooth muscle from fundus of stomach. Also noted: species or system rat (male Sprague-Dawley). On the procedure:
(§1) Determination of the IC50 value
(§2) The organ donors were male Sprague-Dawley rats weighing from 180 to 220 gm. After the removal of the stomach and cerebral cortex, all the other steps were carried out in ice-cold HepesHCl buffer (pH 7.4:100 m molar NaCl, 10 m molr MgCl2). Smooth muscle of the fundic section of the stomach was separated from the gastric mucosa and subjected to preliminary homogenization. All the organs were then homogenized in a potter apparatus.
(§3) For the binding test, the homogenized organ preparations were diluted as follows:
Smooth muscle from the funding of the stomach: 1:100.
(§4) The homogenized organ preparations were incubated in an Eppendorf centrifugal tube at 30° C. with a specific concentration of the radioligand and a concentration series of the non-radioactive test substances. The period of incubation was 45 minutes. 0.3N molar ^3 H-N-methylscopolamine (^3 H-NMS) was used as the radioligand. After the incubation had been stopped by centrifuging at 14,000 g, the radioactivity in the pellet was determined. It represents the sum of specific and non-specific binding of ^3 H-NMS. The proportion of non-specific binding was defined as the radioactivity which was bound in the presence of 1μ molar quinuclidinyl benzylate. Four measurements were taken in each case. The IC50 values of the non-labelled test substances were determined graphically. They represent the concentration of test substance at which the specific binding of ^3 H-NMS to the muscarinic receptors in the various organs was inhibited by 50%.

In data set [2] the target is muscarinic receptors (cerebral cortex). Briefly: Muscarinic receptor binding (inhibition of specific 3H-N-methylscopolamine binding), cerebral cortex. Also noted: species or system rat (male Sprague-Dawley). The note with it: rat cerebral cortex homogenate 1:3000, 3H-NMS, 30° C., 45 minutes; read-out: Receptor Binding Tests IC50, Cortex. On the procedure: as §1, §2, §3
as §4, with “They represent the concentration of test substance at which the specific binding of ^3 H-NMS to the muscarinic receptors in the various organs was inhibited by 50%.” left out

Data set [3] in a line: Mydriasis (effect on pupil size). The note with it: rat, in vivo, iv, pupil size observed for ten minutes. The protocol:
The effect of the test substances on the pupil size in rats was investigated as follows:
The substances were administered intravenously to groups of ten animals in at least three uniformly graduated dosages. The pupil size was then observed for ten minutes to see if there were any changes (the occurrence of mydriasis or miosis), and the test was carried out blind, i.e., the investigator was not aware of the preliminary treatment received by the animals. The percentage of test animals in which mydriasis occurred was determined. The ED50 values were again determined according to LITCHFIELD and WILCOXON (see above).

Data set [4] relates to oxotremorine-induced secretion of saliva. Briefly: Oxotremorine test: inhibition of oxotremorine-induced salivation. The class given is in vivo, rat (Crl:COBS-CD(SD) BR, female albino). To be noted: Rattus norvegicus, iv, read-out: Oxotremorine Tests: Inhibition of Salivation ED50. On the procedure: Oxotremorine, a specific agonist at muscarinic receptors, produces lesions of the gastric mucosa in rats and increases the secretion of saliva. This test model was chosen to be able to determine any selective activity of an antimuscarinic substance on the stomach.
Ten female albino rats (of the Crl:COBS-CD(SD) BR strain) with a body weight of from 120 to 150 gm were used for each treatment group. These rats were given free access to drinking water but were deprived of food for 24 hours before the start of the test.
To determine, in preliminary tests, the muscarinic effect of oxotremorine on each of the symptoms investigated, a dosage-activity curve was plotted with at least three doses for each symptom.
When testing antimuscarinic substances, the oxotremorine dosage used was the dosage which triggered the symptom to be influenced in 90 to 100% of the animals in the preliminary tests.
Secretion of saliva: 0.083 mg/kg i.v.
Each antimuscarinic substance was administered in uniformly graduated dosages by intravenous route 15 minutes before the administration of oxotremorine. Control groups were given the solvent and suspension agent in corresponding amounts instead of the test substance.
The results were expressed as the percentage inhibition of the oxotremorine effect (percentage of the animals without the symptom in question). The ED50 values were determined using the method of LITCHFIELD and WILCOXON (J. Pharmacol. Exp. Ther. 96, 99, 1949).

The structures appear in SMILES notation. pIC50: −log10 of the molar value.

What is called pIC50 is the IC50 on a negative log10 scale, so that one unit is a factor of ten. As usually defined, the ED50 is the dose that gives a 50% effect, or the effect in half of the subjects.

As for `CN1CCC(NC(=O)C2c3ccccc3NC(=O)c3ccccc32)CC1` (centres unmarked) [A, 5,11-Dihydro-11-[[(1-methyl-4-piperidinyl)-amino]-carbonyl]-6H-dibenz[b,e]azepin-6-one], the pIC50 was 6.15 in data set [1] and 7.40 in data set [2]. The same compound registered an ED50 at 10 min in data set [3] of 0.075 mg/kg. Besides, the ED50 in data set [4] worked out at 0.19 mg/kg.
The like results for `CN1CCC(CC(=O)C2c3ccccc3NC(=O)c3ccccc32)CC1` (centres unmarked) [B, 5,11-Dihydro-11-[(1-methyl-4-piperidinyl)-acetyl]-6H-dibenz[b,e]azepin-6-one] were, in that order, 6.82, 7.60, 0.179 mg/kg and 0.186 mg/kg.
In data set [1], `CN1CCN(CC(=O)C2c3ccccc3NC(=O)c3ccccc32)CC1` (centres unmarked) [C, 5,11-Dihydro-[(4-methyl-1-piperazinyl)-acetyl]-6H-dibenz[b,e]azepin-6-one] gave a pIC50 of 6.40. The compound further had an ED50 at 10 min in data set [3] of 0.161 mg/kg. Also, in data set [4], the ED50 was found to be 0.335 mg/kg.

The record behind these values is patent US4567178A, “Substituted 5,11-dihydro-6H-dibenz[b,e]azepin-6-ones and pharmaceutical compositions containing same” (Dr. Karl Thomae GmbH, priority 1984, dated 1986).
